Assay results from ChEMBL document CHEMBL3132812, “Metabolism-guided drug design” (Medchemcomm, 2013).
One block for each compound: values may come before it.

Legend:
Homo sapiens [1] = assay: In vivo inhibition of CYP2D6 in patient at 20 mg, qd relative to control; format: ADME, organism-based
[2] = Drug metabolism in rat liver microsomes assessed as O-demethylation; format: ADME; conditions: read-out: Drug metabolism
[3] = Drug metabolism in rat liver microsomes assessed as N-demethylation; format: ADME; conditions: read-out: Drug metabolism
[4] = Drug metabolism in rat liver microsomes assessed as oxidative deamination; format: ADME; conditions: read-out: Drug metabolism
[5] = Lipophilicity, log D of the compound at pH 7.4; format: physicochemical; conditions: buffer
[6] = Half life in human plasma at 600 mg, po; format: ADME, organism-based
[7] = Half life in monkey; format: ADME, organism-based, Macaca mulatta; conditions: rhesus monkey, in vivo
Trypsin = Trypsin (Homo sapiens, UniProt P07477+P07478+P35030); assay: Inhibition of trypsin (unknown origin); format: protein assay
Homo sapiens [8] = assay: In vivo inhibition of CYP2D6 in patient assessed as inhibition of dextromethorphan to dextrorphan conversion at 20 to 40 mg, qd relative to control; format: ADME, organism-based
[9] = Drug metabolism in human; format: ADME, organism-based; conditions: in vivo, read-out: Drug metabolism
[10] = Half life in rat; format: ADME, organism-based; conditions: in vivo
Prothrombin = Prothrombin (Homo sapiens, UniProt P00734); assay: Inhibition of thrombin (unknown origin)

SMILES: Fc1ccc([C@@H]2CCNC[C@H]2COc2ccc3c(c2)OCO3)cc1 [PAROXETINE]
inhibition (INH) (Homo sapiens [1]): 55%

SMILES: CC(c1cc2ccccc2s1)N(O)C(N)=O (stereo not drawn) [ZILEUTON]
half-life [6]: 3 h
half-life [7]: < 1 h

SMILES: CC(c1ccoc1)N(O)C(N)=O (stereo not drawn)
half-life [7]: 3.1 h

SMILES: Cc1cnc(NCC(F)(F)c2ccccn2)c(=O)n1CC(=O)NCc1ncccc1F
IC50 (Trypsin): 252 nM

SMILES: C[C@H](C#Cc1ccc(Oc2ccc(F)cc2)o1)N(O)C(N)=O
half-life [7]: 7.4 h

SMILES: [3H]C1([3H])Oc2ccc(OC[C@@H]3CNCC[C@H]3c3ccc(F)cc3)cc2O1
inhibition (INH) (Homo sapiens [8]): 15%

SMILES: [3H]C([3H])([3H])Oc1ccc(C(CN(C([3H])([3H])[3H])C([3H])([3H])[3H])C2(O)CCCCC2)cc1 (stereo not drawn)
metabolised [9]: 50%

SMILES: N#Cc1cnc(NCC(F)(F)c2ccccn2)c(=O)n1CC(=O)NCc1ncccc1F
IC50 (Trypsin): 213 nM
IC50 (Prothrombin): 2.3 nM

Now from value to compound:

metabolised [2]: 8%
metabolised [3]: 31%
metabolised [4]: 53%
SMILES: COc1ccc([C@H]2Cc3c(cccc3C(F)(F)F)N(CCN(C)C)C(=O)[C@H]2OC(C)=O)cc1

logD [5]: -1.7
SMILES: CNS(=O)(=O)Cc1ccc2[nH]cc(CCN(C)C)c2c1

IC50 (Trypsin): 800 nM
SMILES: Cc1nc(N)ccc1CNC(=O)Cn1c(C)cnc(NCC(F)(F)c2ccccn2)c1=O

half-life [10]: > 220 h
SMILES: CS(=O)(=O)c1ccc(-n2nc(C(F)(F)F)cc2-c2ccc(F)cc2)cc1 [SC-58125]

IC50 (Trypsin): 1800 nM
IC50 (Prothrombin): 0.8 nM
SMILES: Cc1nc(N)ccc1CNC(=O)Cn1c(C)cnc(NCCc2ccccc2)c1=O [L-375378]
